# Read-outs that look alike come from different tables or passages of the source.
# Tests used:
# male Sprague-Dawley rats = assay: In vivo blood pressure lowering in conscious telemetered rats, oral gavage; parameters: species or system rat; details: for Diastolic blood pressure, 2-5 h mean change from baseline / MAP, 2-5 h mean change from baseline / Systolic blood pressure, 2-5 h mean change from baseline: rat; for Effect on blood pressure (in words): oral gavage 7.5, 15 or 30 mg/kg, male Sprague-Dawley rats
# Procedure: In Vivo Blood Pressure Lowering Activity of the Compounds
# Select compounds were evaluated for their effects upon oral administration on hemodynamic changes, including blood pressure reduction, in conscious, telemetered male Sprague-Dawley rats. Apelin peptides are known to lower blood pressure, e.g., Tatemoto, K., et.al. Regul. Pept. 2001, 99, 87-92.
# Animals were approximately 7-9 weeks of age and weighed between 247 g to 263 g just prior to surgery. Dose levels administered were 7.5, 15 or 30 mg/kg, dose volumes were 10 mL/kg, and dose route of administration was oral gavage. Animals were assigned to a crossover experimental treatment schedule as shown below.
# Collected data included systolic, diastolic, and mean arterial blood pressure (MAP). Data collection time points were for pre-dose baseline approximately 48 h (prior to treatment 1) or approximately 24 h (prior to treatment 2-4) for 10 sec every 2 min. Data collection post-dose was collected through approximately 24 h (data collected for 10 sec every 2 min) per treatment. Resulting data is presented below as the 2-5 h mean change from baseline in mmHg.
# apelin receptor (APJ) = molecular target: T1, apelin receptor (APJ) (Homo sapiens, UniProt P35414); assay: In vitro apelin agonist activity (methods of Giddings et al., Apelin-13 as positive control); type: cell-based
# T1 sequence (P35414 1-380): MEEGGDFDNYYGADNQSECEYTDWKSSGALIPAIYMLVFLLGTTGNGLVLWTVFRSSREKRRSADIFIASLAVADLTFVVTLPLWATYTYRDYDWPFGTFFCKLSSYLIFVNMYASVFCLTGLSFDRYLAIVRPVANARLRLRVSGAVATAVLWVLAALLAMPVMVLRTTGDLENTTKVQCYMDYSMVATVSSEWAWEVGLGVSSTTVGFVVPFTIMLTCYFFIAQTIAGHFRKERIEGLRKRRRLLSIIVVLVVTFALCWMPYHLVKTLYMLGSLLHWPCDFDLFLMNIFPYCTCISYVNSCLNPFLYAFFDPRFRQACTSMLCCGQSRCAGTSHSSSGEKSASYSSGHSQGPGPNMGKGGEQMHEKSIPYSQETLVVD
# Source text: Characterization of the Apelin Agonist Activity of the Compounds
# 1:39-47, the contents of which are hereby incorporated by reference in its entirety. Using the methods described in Giddings et al. and Apelin-13 as a positive control.
# [1] = Caco-2 cellular uptake / permeability assay (A-to-B, B-to-A); type: in vitro ADME; details: human, Caco-2, pH 7.4
# Procedure: 5.3. Cellular Uptake Assay
# Caco-2 cells (clone C2BBe1) were obtained from American Type Culture Collection (Manassas, Va,). Cell monolayers were grown to confluence on collagen-coated, microporous, polycarbonate membranes in 12-well Costar Transwell plates. Details of the plates and their certification are shown below. The permeability assay buffer was Hanks' balanced salt solution (HBSS) containing 10 mM HEPES and 15 mM glucose at a pH of 7.4. The buffer in the receiver chamber also contained 1% bovine serum albumin. The dosing solution concentration was 5 μM for each test article in the assay buffer. Cell monolayers were dosed on the apical side (A-to-B) or basolateral side (B-to-A) and incubated at 37° C. with 5% CO2 in a humidified incubator. Samples were taken from the donor and receiver chambers at 120 minutes. Each determination was performed in duplicate. After the experiment, all assay buffers were removed from the inserts. Cell monolayers were dosed with blank 500 μM lucifer yellow on the A-to-B side and blank HBSS on the B-to-A side and incubated at 37° C. Samples were taken from the B-to-A side at 60 minutes. The flux of lucifer yellow was measured for each monolayer to ensure no damage was inflicted to the cell monolayers during the flux period. All samples were analyzed by LC-MS/MS using electrospray ionization.
# Where, dCr/dt is the slope of the cumulative concentration in the receiver compartment versus time in μM s^−1;
# Vr is the volume of the receiver compartment in cm^3;
# Vd is the volume of the donor compartment in cm^3;
# CA is the average of the nominal dosing concentration and the measured 120-minute donor concentration in μM;
# CN is the nominal concentration of the dosing solution in μM;
# Cr^final is the cumulative receiver concentration in μM at the end of the incubation period;
# Cd^final is the concentration of the donor in μM at the end of the incubation period.
# Efflux ratio (ER) is defined as Papp (B-to-A)/Papp (A-to-B).
# [2] = in vitro apelin agonist activity, methods of Giddings et al., Apelin-13 as positive control, read-out: EC50 (nM) Ave
# [3] = apelin agonist potency as listed in Table 3 (Cellular Uptake Results), read-out: EC50
SMILES,EC50 (apelin receptor (APJ); [2]) [nM],EC50 (apelin receptor (APJ); [3]) [nM],"efflux ratio at 120 min, 5 μM [1]","Diastolic blood pressure, 2-5 h mean change from baseline (male Sprague-Dawley rats; 7.5 mg/kg oral gavage) [mmHg]","MAP, 2-5 h mean change from baseline (male Sprague-Dawley rats; 7.5 mg/kg oral gavage) [mmHg]","Systolic blood pressure, 2-5 h mean change from baseline (male Sprague-Dawley rats; 7.5 mg/kg oral gavage) [mmHg]","Diastolic blood pressure, 2-5 h mean change from baseline (male Sprague-Dawley rats; 15 mg/kg oral gavage) [mmHg]","MAP, 2-5 h mean change from baseline (male Sprague-Dawley rats; 15 mg/kg oral gavage) [mmHg]","Systolic blood pressure, 2-5 h mean change from baseline (male Sprague-Dawley rats; 15 mg/kg oral gavage) [mmHg]","Diastolic blood pressure, 2-5 h mean change from baseline (male Sprague-Dawley rats; 30 mg/kg oral gavage) [mmHg]","MAP, 2-5 h mean change from baseline (male Sprague-Dawley rats; 30 mg/kg oral gavage) [mmHg]","Systolic blood pressure, 2-5 h mean change from baseline (male Sprague-Dawley rats; 30 mg/kg oral gavage) [mmHg]",Effect on blood pressure (in words) (male Sprague-Dawley rats)
"Cl.O=C(O)C[C@H](CCN1CCCC(F)(F)C1)NC(=O)c1cc(-c2ccccc2C(F)(F)F)n(C2CCCC2)n1 [compound 423, (3S)-3-({1-cyclopentyl-5-[2-(trifluoromethyl)phenyl]-1H-pyrazol-3-yl}formamido)-5-(3,3-difluoropiperidin-1-yl)pentanoic acid]",35,–,–,−9.9,−10.0,−13.0,−7.3,−8.4,−9.8,−8.3,−9.3,−10.7,mild sustained decrease in blood pressure
"COc1cccc(OC)c1-c1cc(C(=O)N[C@@H](CCN2CCC(F)(F)CC2)CC(=O)NC2CCC2)nn1C1CCCC1 [compound 335, (3S)-N-cyclobutyl-3-{[1-cyclopentyl-5-(2,6-dimethoxyphenyl)-1H-pyrazol-3-yl]formamido}-5-(4,4-difluoropiperidin-1-yl)pentanamide]",63,63,1,–,–,–,–,–,–,–,–,–,–
"COc1cccc(OC)c1-c1cc(C(=O)N[C@@H](CCN2CCCC(F)(F)C2)CC(=O)NC2CCC2)nn1C1CCCC1 [compound 348, (3S)-N-cyclobutyl-3-{[1-cyclopentyl-5-(2,6-dimethoxyphenyl)-1H-pyrazol-3-yl]formamido}-5-(3,3-difluoropiperidin-1-yl)pentanamide]",15,15,2.1,–,–,–,–,–,–,–,–,–,–
"COc1cccc(OC)c1-c1cc(C(=O)N[C@@H](CCN2CCCC(F)(F)C2)CC(=O)Nc2nccs2)nn1C1CCCC1 [compound 384, (3S)-3-{[1-cyclopentyl-5-(2,6-dimethoxyphenyl)-1H-pyrazol-3-yl]formamido}-5-(3,3-difluoropiperidin-1-yl)-N-(1,3-thiazol-2-yl)pentanamide]",15,15,1.7,–,–,–,–,–,–,–,–,–,–

# The next lines start with results.
EC50 (apelin receptor (APJ); [2]) [nM],EC50 (apelin receptor (APJ); [3]) [nM],"efflux ratio at 120 min, 5 μM [1]",SMILES,"Diastolic blood pressure, 2-5 h mean change from baseline (male Sprague-Dawley rats; 7.5 mg/kg oral gavage) [mmHg]","MAP, 2-5 h mean change from baseline (male Sprague-Dawley rats; 7.5 mg/kg oral gavage) [mmHg]","Systolic blood pressure, 2-5 h mean change from baseline (male Sprague-Dawley rats; 7.5 mg/kg oral gavage) [mmHg]","Diastolic blood pressure, 2-5 h mean change from baseline (male Sprague-Dawley rats; 15 mg/kg oral gavage) [mmHg]","MAP, 2-5 h mean change from baseline (male Sprague-Dawley rats; 15 mg/kg oral gavage) [mmHg]","Systolic blood pressure, 2-5 h mean change from baseline (male Sprague-Dawley rats; 15 mg/kg oral gavage) [mmHg]","Diastolic blood pressure, 2-5 h mean change from baseline (male Sprague-Dawley rats; 30 mg/kg oral gavage) [mmHg]","MAP, 2-5 h mean change from baseline (male Sprague-Dawley rats; 30 mg/kg oral gavage) [mmHg]","Systolic blood pressure, 2-5 h mean change from baseline (male Sprague-Dawley rats; 30 mg/kg oral gavage) [mmHg]",Effect on blood pressure (in words) (male Sprague-Dawley rats)
25,–,–,"O=C(N[C@@H](CCN1CCCC(F)(F)C1)Cc1nnn[nH]1)c1cc(-c2ccccc2C(F)(F)F)n(C2CCCC2)n1 [compound 551, 1-cyclopentyl-N-[(2S)-4-(3,3-difluoropiperidin-1-yl)-1-(1H-1,2,3,4-tetrazol-5-yl)butan-2-yl]-5{2-(trifluoromethyl)phenyl]-1H-pyrazole-3-carboxamide]",−4.3,−4.5,−6.6,−7.3,−8.5,−9.6,−8.4,−9.8,−11.3,"dose-dependent, mild sustained decrease in blood pressure"
7,7,1,"CCc1ccccc1-c1cc(C(=O)N[C@@H](CCN2CCCC(F)(F)C2)CC(=O)Nc2nccs2)nn1C1CCCC1 [compound 410, (3S)-3-{[1-cyclopentyl-5-(2-ethylphenyl)-1H-pyrazol-3-yl]formamido}-5-(3,3-difluoropiperidin-1-yl)-N-(1,3-thiazol-2-yl)pentanamide]",–,–,–,–,–,–,–,–,–,–
44,44,3.6,"CCc1ccccc1-c1cc(C(=O)N[C@@H](CCN2CCCCC2)CC(=O)NC2CCC2)nn1C1CCCC1 [compound 363, (3S)-N-cyclobutyl-3-{[1-cyclopentyl-5-(2-ethylphenyl)-1H-pyrazol-3-yl]formamido}-5-(piperidin-1-yl)pentanamide]",–,–,–,–,–,–,–,–,–,–
10.9,–,–,"O=C(C[C@H](CCN1CCCC(F)(F)C1)NC(=O)c1cc(-c2ccccc2C(F)(F)F)n(C2CCCC2)n1)NC1CCC1 [compound 425, (3S)-N-cyclobutyl-3-({1-cyclopentyl-5-[2-(trifluoromethyl)phenyl]-1H-pyrazol-3-yl}formamido)-5-(3,3-difluoropiperidin-1-yl)pentanamide]",–,–,–,–,–,–,–,–,–,–
